Test results from ChEMBL document CHEMBL3352153, “Diastereoselective synthesis of potent antimalarial cis-β-lactam agents through a [2 + 2] cycloaddition of chiral imines with a chiral ketene” (Eur J Med Chem, 2014).

system: Plasmodium falciparum; assay: Antimalarial activity against chloroquine-resistant Plasmodium falciparum K14 infected in human red blood cells after 48 hrs by [3H]hypoxanthine incorporation assay; assay type: functional, organism-based

Structure (SMILES)	IC50 [µM]
CC(C)[C@@H]1CC[C@@H](C)C[C@H]1O[C@@H]1C(=O)N([C@@H](C)c2ccccc2)[C@@H]1c1ccccc1Cl	36
COc1ccc(N2C(=O)[C@@H](O[C@@H]3C[C@H](C)CC[C@H]3C(C)C)[C@H]2c2ccc(Cl)cc2)cc1	> 50
C[C@@H](c1ccccc1)N1C(=O)[C@@H](Oc2ccccc2)[C@H]1c1ccc(Cl)cc1	42
Cc1cccc([C@@H]2[C@H](O[C@@H]3C[C@H](C)CC[C@H]3C(C)C)C(=O)N2[C@@H](C)c2ccccc2)c1	42
CC(C)[C@@H]1CC[C@@H](C)C[C@H]1O[C@@H]1C(=O)N([C@@H](C)c2ccccc2)[C@@H]1c1ccc2ccccc2c1	10
COc1ccc([C@@H]2[C@H](O[C@@H]3C[C@H](C)CC[C@H]3C(C)C)C(=O)N2[C@@H](C)c2ccccc2)cc1	13
Cc1ccc([C@@H]2[C@H](O[C@@H]3C[C@H](C)CC[C@H]3C(C)C)C(=O)N2[C@@H](C)c2ccccc2)cc1	35
CC(C)[C@@H]1CC[C@@H](C)C[C@H]1O[C@@H]1C(=O)N([C@@H](C)c2ccccc2)[C@@H]1c1ccc(Cl)cc1	33
C[C@@H](c1ccccc1)N1C(=O)[C@H](Oc2ccccc2)[C@@H]1c1ccc(Cl)cc1	42
CC(C)[C@@H]1CC[C@@H](C)C[C@H]1O[C@@H]1C(=O)N([C@@H](C)c2ccccc2)[C@@H]1c1ccc(F)cc1	19
CC(C)[C@@H]1CC[C@@H](C)C[C@H]1O[C@@H]1C(=O)N([C@@H](C)c2ccccc2)[C@@H]1c1ccc(Br)cc1	11
CC(C)[C@@H]1CC[C@@H](C)C[C@H]1O[C@@H]1C(=O)N([C@@H](C)c2ccccc2)[C@@H]1c1ccc([N+](=O)[O-])cc1	27
COc1ccc([C@@H]2[C@H](O[C@@H]3C[C@H](C)CC[C@H]3C(C)C)C(=O)N2[C@@H](C)c2ccccc2)cc1OC	8
COc1cccc([C@@H]2[C@H](O[C@@H]3C[C@H](C)CC[C@H]3C(C)C)C(=O)N2[C@@H](C)c2ccccc2)c1	8
COc1ccc(N2C(=O)[C@H](O[C@@H]3C[C@H](C)CC[C@H]3C(C)C)[C@@H]2c2ccc(Cl)cc2)cc1	> 50
CC(C)[C@@H]1CC[C@@H](C)C[C@H]1O[C@@H]1C(=O)N([C@@H](C)c2ccccc2)[C@@H]1/C=C/c1ccccc1	> 50
CC(C)[C@@H]1CC[C@@H](C)C[C@H]1O[C@@H]1C(=O)N([C@@H](C)c2ccccc2)[C@@H]1c1ccccc1[N+](=O)[O-]	21
